This passage reports calcium oscillation score results from the OligoGym collection.

Bases are written 5' to 3'; sugars and linkages follow in the same order, as letters with counts (s phosphorothioate, o phosphodiester; PS: all linkages phosphorothioate). The collection does not say whether C is 5-methylated. l = locked nucleic acid (LNA); d = 2'-deoxy (DNA)

The target in the series is Tau. Kind of series: rat primary cortical neurons, FLIPR, 25 uM ASO.
For the sequence “CCTCACTTTACACATTAAAT (sugars l4 d14 l2, PS)”, the calcium oscillation score is 64.1 % of control. For the sequence CCTCCACCCTTACACA (sugars l1 d13 l2, PS), the calcium oscillation score is 58.9 % of control. As to “CCTCCACCCTTACACAT (sugars l2 d13 l2, PS)”, the calcium oscillation score was 55.6 % of control. Turning to “CCTCCATTAAGAACCTA (sugars l2 d12 l3, PS)”, the calcium oscillation score was 90.1 % of control. For “CCTCCCACCTATCAGTCA (sugars l1 d15 l2, PS)”, the calcium oscillation score is 46.2 % of control.

Regarding “CCTCCCTTTAATGCCAGGCC (sugars l3 d14 l3, PS)”, the calcium oscillation score is 34.2 % of control. Turning to “CCTCCTAGAACACAACA (sugars l3 d12 l2, PS)”, the calcium oscillation score was 57 % of control. Consider “CCTCCTGGTTTATGATGGAT (sugars l3 d14 l3, PS)”, for which the calcium oscillation score is 58.3 % of control.

Regarding CCTCCTTAACCATTAG (sugars l2 d11 l3, PS), the calcium oscillation score is 54.5 % of control. In the case of CCTCGTCAGCTAGCGT (sugars l3 d10 l3, PS), the calcium oscillation score was 76 % of control. With CCTCTAGTTTTACCTA (sugars l2 d11 l3, PS), the calcium oscillation score is 58.8 % of control. Turning to “CCTCTAGTTTTACCTAA (sugars l2 d11 l4, PS)”, the calcium oscillation score was 72.9 % of control.

With “CCTCTCCTTTAAGAAAA (sugars l4 d10 l3, PS)”, the calcium oscillation score was 74.9 % of control. Take “CCTCTGTCTTAACTTTT (sugars l3 d10 l4, PS)”: the calcium oscillation score was 97 % of control. Next, CCTCTTCCACTACAAG (sugars l2 d12 l2, PS): 57.8 % of control; “CCTCTTCCACTACAAGCT (sugars l2 d14 l2, PS)”: 49.1 % of control; “CCTGAAACACCTTTTTCC (sugars l2 d14 l2, PS)”: 71.1 % of control. As for CCTGATCACAAACCCT (sugars l3 d10 l3, PS), the calcium oscillation score is 100 % of control. Turning to CCTGGTGGCGTTGGCC (sugars l3 d10 l3, PS), the calcium oscillation score was 32.6 % of control. Regarding CCTGGTTTATGATGGA (sugars l3 d10 l3, PS), the calcium oscillation score is 26.1 % of control. As for “CCTGGTTTATGATGGATGTT (sugars l3 d14 l3, PS)”, the calcium oscillation score is 0 % of control. Next, “CCTGTCTCAAACACCTA (sugars l2 d12 l3, PS)”: 60.6 % of control; CCTTAAAGCTCCAACA (sugars l4 d10 l2, PS): 94.6 % of control. CCTTAATTTCACCC (sugars l3 d8 l3, PS): the calcium oscillation score was 66.7 % of control. Next, CCTTAATTTCACCCT (sugars l3 d9 l3, PS): 140 % of control; CCTTAATTTCACCCTC (sugars l3 d10 l3, PS): 132 % of control. For the sequence CCTTACCACTTTCAGG (sugars l3 d10 l3, PS), the calcium oscillation score was 111 % of control.

Take “CCTTACTTTCTACTCAAT (sugars l2 d12 l4, PS)”: the calcium oscillation score is 62.1 % of control. To “CCTTACTTTCTACTCAATT (sugars l3 d14 l2, PS)” belongs 48.1 % of control; to “CCTTGAAGTCAAGCTTCTCA (sugars l3 d14 l3, PS)”, 66.4 % of control. To “CCTTGATCATATTTGTGGCA (sugars l3 d14 l3, PS)” belongs 28.6 % of control.

On to CCTTTGAAAGTCCTTT (sugars l2 d11 l3, PS), for which the calcium oscillation score is 100 % of control. For the sequence CCTTTGAAAGTCCTTT (sugars l2 d12 l2, PS), the calcium oscillation score was 96.4 % of control. For the sequence CCTTTGAAAGTCCTTT (sugars l3 d9 l4, PS), the calcium oscillation score is 90.5 % of control. Next, CCTTTGAAAGTCCTTT (sugars l3 d11 l2, PS): 121 % of control; CCTTTGAAAGTCCTTT (sugars l4 d8 l4, PS): 106 % of control; CCTTTGAAAGTCCTTT (sugars l4 d9 l3, PS): 96.4 % of control. Turning to “CCTTTGTAATTCCTTCTC (sugars l3 d13 l2, PS)”, the calcium oscillation score was 53.4 % of control.

For the sequence “CCTTTTAAAAGAACCCT (sugars l3 d11 l3, PS)”, the calcium oscillation score was 96 % of control. For CCTTTTAATTCATTAG (sugars l4 d8 l4, PS), the calcium oscillation score was 59 % of control. For CCTTTTCATGTTAAATC (sugars l4 d9 l4, PS), the calcium oscillation score was 86.6 % of control. With “CCTTTTCTACTCTACTC (sugars l3 d12 l2, PS)”, the calcium oscillation score was 70.9 % of control. Take “CCTTTTCTACTCTACTCT (sugars l3 d13 l2, PS)”: the calcium oscillation score was 63.3 % of control.

With “CCTTTTCTACTCTACTCTC (sugars l3 d14 l2, PS)”, the calcium oscillation score is 55.7 % of control. For the sequence “CCTTTTCTACTCTACTCTCA (sugars l2 d16 l2, PS)”, the calcium oscillation score is 62.1 % of control. With “CCTTTTTATTTCCTCCGC (sugars l3 d13 l2, PS)”, the calcium oscillation score is 40.1 % of control. For the sequence “CCTTTTTCCATCTTACTAAT (sugars l3 d14 l3, PS)”, the calcium oscillation score is 54.7 % of control. For the sequence “CGAAACCAAGGTCCCACCAG (sugars l3 d14 l3, PS)”, the calcium oscillation score was 40.4 % of control. To CGAACTGCGAGGAGCA (sugars l3 d10 l3, PS) belongs 2.71 % of control; to “CGAACTGCGAGGAGCAGCTG (sugars l3 d14 l3, PS)”, 0 % of control. As for CGAATTACCTAACCTC (sugars l3 d9 l4, PS), the calcium oscillation score is 88.2 % of control. Regarding CGACTTATCTATCCAT (sugars l4 d9 l3, PS), the calcium oscillation score was 46.2 % of control. To “CGACTTATCTATCCATC (sugars l4 d10 l3, PS)” belongs 50.5 % of control.

As to “CGACTTATCTATCCATCT (sugars l2 d12 l4, PS)”, the calcium oscillation score is 45.8 % of control. Next, CGACTTGTACACGATC (sugars l3 d10 l3, PS): 48.9 % of control; CGAGCCAAAGCCGA (sugars l3 d8 l3, PS): 116 % of control; CGAGTCTACCATGTCG (sugars l3 d10 l3, PS): 103 % of control. Regarding “CGAGTCTACCATGTCGATGC (sugars l3 d14 l3, PS)”, the calcium oscillation score was 78.5 % of control. Next, CGATGCTGCCGGTGGA (sugars l3 d10 l3, PS): 2.61 % of control. With “CGCACCAGGAACCTTCCAGA (sugars l3 d14 l3, PS)”, the calcium oscillation score is 28.2 % of control. For CGCAGGCGCGAGCA (sugars l3 d8 l3, PS), the calcium oscillation score was 102 % of control. For CGCAGGCGCGAGCAGC (sugars l3 d10 l3, PS), the calcium oscillation score is 20.7 % of control. To “CGCCAGGGACGTGGGTGATA (sugars l3 d14 l3, PS)” belongs 0 % of control; to CGCCCCACTTTTAATT (sugars l3 d11 l2, PS), 58.3 % of control. Next, “CGCCCCACTTTTAATTA (sugars l2 d12 l3, PS)”: 77.2 % of control. As to “CGCCTTTAGTGATTACAGGC (sugars l3 d14 l3, PS)”, the calcium oscillation score is 20.2 % of control. To CGCGGAAGGTCAGCTT (sugars l3 d10 l3, PS) belongs 33.3 % of control; to “CGCGGAAGGTCAGCTTGTGG (sugars l3 d14 l3, PS)”, 0 % of control. Regarding CGCTTCCAGTCCCG (sugars l3 d8 l3, PS), the calcium oscillation score was 107 % of control.

Regarding CGCTTCCAGTCCCGTC (sugars l3 d10 l3, PS), the calcium oscillation score was 15.7 % of control. In the case of CGGAAGGTCAGCTTGT (sugars l3 d10 l3, PS), the calcium oscillation score is 32.5 % of control.

Regarding “CGGAAGGTCAGCTTGTGGGT (sugars l3 d14 l3, PS)”, the calcium oscillation score is 14.5 % of control. On to CGGCGCAGGCGCGAGC (sugars l3 d10 l3, PS), for which the calcium oscillation score was 2.71 % of control. Take “CGGTAGGAAAGACATTTCCC (sugars l3 d14 l3, PS)”: the calcium oscillation score is 10.1 % of control. As for CGTCAGCTAGCGTGGC (sugars l3 d10 l3, PS), the calcium oscillation score was 117 % of control. To “CGTCCCAGCGTGATCTTCCA (sugars l4 d11 l5, PS)” belongs 42.6 % of control.

Consider “CGTCCCAGCGTGATCTTCCA (sugars l5 d11 l4, PS)”, for which the calcium oscillation score is 36.2 % of control. “CGTCCCAGCGTGATCTTCCA (sugars ldlllddddddddddlldll, PS)”: the calcium oscillation score is 38.3 % of control. As to “CGTCCCAGCGTGATCTTCCA (sugars lldllddddddddddlldll, PS)”, the calcium oscillation score is 59.6 % of control. Take “CGTCTTTGCTTTTACTGACC (sugars l3 d14 l3, PS)”: the calcium oscillation score is 29.6 % of control.

CGTGATCTTCCATC (sugars l3 d8 l3, PS): the calcium oscillation score was 85.1 % of control. As to CGTGATCTTCCATCAC (sugars l3 d10 l3, PS), the calcium oscillation score is 127 % of control.

With CGTGGGTGATATTGTC (sugars l3 d10 l3, PS), the calcium oscillation score was 0 % of control. As for “CGTGGGTGATATTGTCCAGG (sugars l3 d14 l3, PS)”, the calcium oscillation score is 0 % of control. As to CGTGGTCTGTCTTG (sugars l3 d8 l3, PS), the calcium oscillation score was 0 % of control.

On to CGTGGTCTGTCTTGGC (sugars l3 d10 l3, PS), for which the calcium oscillation score is 19 % of control. For CGTTCTCGCGGAAGGT (sugars l3 d10 l3, PS), the calcium oscillation score is 13 % of control. Take CGTTGCTAAGATCCAG (sugars l3 d10 l3, PS): the calcium oscillation score is 9.04 % of control.

With CGTTTTCTTACCACCC (sugars l2 d12 l2, PS), the calcium oscillation score is 46.2 % of control. On to CTAAACCATGATCTTA (sugars l3 d10 l3, PS), for which the calcium oscillation score was 21.1 % of control.

As to CTAAAGTCCCAGGTC (sugars l3 d9 l3, PS), the calcium oscillation score is 40.5 % of control.

In the case of CTAAAGTCCCAGGTCT (sugars l3 d10 l3, PS), the calcium oscillation score is 59.2 % of control. To “CTAAGCACTTTACCCATC (sugars l3 d13 l2, PS)” belongs 97.6 % of control; to CTAAGGCAAGGCCTAT (sugars l3 d10 l3, PS), 83 % of control.

“CTAATATCCTTGCTATC (sugars l3 d10 l4, PS)”: the calcium oscillation score is 55.7 % of control.

In the case of CTAATCCTGTGCTT (sugars l3 d8 l3, PS), the calcium oscillation score is 26.1 % of control.
